From US11535607B2, “Isoindolines as HDAC inhibitors” (Valo Health, Inc., priority 2018, dated 2022) come the findings set out here.

Each structure is given as a SMILES string. Read-outs that look alike come from different tables or passages of the source.

One data set deals with HDAC8 (Homo sapiens (Human), UniProt Q9BY41). Kind of data set: HDAC8 electrophoretic mobility shift assay. Format: biochemical. The note with it: Table 7, read-out: HDAC IC50, HDAC 8.
Data set [1] concerns other 10 members of the HDAC family. Kind of data set: HDAC family selectivity profile, electrophoretic mobility shift assays. The class given is biochemical, human. The following applies: HDAC 1-11 profile. On the technique in general: Mobility shift assays separate free from complexed probe on a gel.
For a further data set, the target named is HDAC5 (Homo sapiens (Human), UniProt Q9UQL6). Kind of data set: HDAC5 electrophoretic mobility shift assay. The class given is biochemical. The following applies: Table 7, read-out: HDAC IC50, HDAC 5.
Data set [2] addresses HDAC11 fused to Nanoluc luciferase (Homo sapiens (Human), UniProt Q96DB2). Kind of data set: BRET target engagement cell assay. Background: In BRET a luciferase serves as donor, and the signal depends on an acceptor being close.
Data set [3] can be described thus: Kinetic solubility at pH 7.4. The class given is physicochemical. The following applies: aqueous buffer, kinetic from dmso stock.
The next data set has as its target HDAC7 (Homo sapiens (Human), UniProt Q8WUI4). Kind of data set: HDAC7 electrophoretic mobility shift assay. The class given is biochemical. The note with it: Table 7, read-out: HDAC IC50, HDAC 7.
In another data set the target is HDAC4 (Homo sapiens (Human), UniProt P56524). As to the kind of experiment: HDAC4 electrophoretic mobility shift assay. Format: biochemical. The following applies: Table 7, read-out: HDAC IC50, HDAC 4.
HDAC4, sequence (P56524 whole entry): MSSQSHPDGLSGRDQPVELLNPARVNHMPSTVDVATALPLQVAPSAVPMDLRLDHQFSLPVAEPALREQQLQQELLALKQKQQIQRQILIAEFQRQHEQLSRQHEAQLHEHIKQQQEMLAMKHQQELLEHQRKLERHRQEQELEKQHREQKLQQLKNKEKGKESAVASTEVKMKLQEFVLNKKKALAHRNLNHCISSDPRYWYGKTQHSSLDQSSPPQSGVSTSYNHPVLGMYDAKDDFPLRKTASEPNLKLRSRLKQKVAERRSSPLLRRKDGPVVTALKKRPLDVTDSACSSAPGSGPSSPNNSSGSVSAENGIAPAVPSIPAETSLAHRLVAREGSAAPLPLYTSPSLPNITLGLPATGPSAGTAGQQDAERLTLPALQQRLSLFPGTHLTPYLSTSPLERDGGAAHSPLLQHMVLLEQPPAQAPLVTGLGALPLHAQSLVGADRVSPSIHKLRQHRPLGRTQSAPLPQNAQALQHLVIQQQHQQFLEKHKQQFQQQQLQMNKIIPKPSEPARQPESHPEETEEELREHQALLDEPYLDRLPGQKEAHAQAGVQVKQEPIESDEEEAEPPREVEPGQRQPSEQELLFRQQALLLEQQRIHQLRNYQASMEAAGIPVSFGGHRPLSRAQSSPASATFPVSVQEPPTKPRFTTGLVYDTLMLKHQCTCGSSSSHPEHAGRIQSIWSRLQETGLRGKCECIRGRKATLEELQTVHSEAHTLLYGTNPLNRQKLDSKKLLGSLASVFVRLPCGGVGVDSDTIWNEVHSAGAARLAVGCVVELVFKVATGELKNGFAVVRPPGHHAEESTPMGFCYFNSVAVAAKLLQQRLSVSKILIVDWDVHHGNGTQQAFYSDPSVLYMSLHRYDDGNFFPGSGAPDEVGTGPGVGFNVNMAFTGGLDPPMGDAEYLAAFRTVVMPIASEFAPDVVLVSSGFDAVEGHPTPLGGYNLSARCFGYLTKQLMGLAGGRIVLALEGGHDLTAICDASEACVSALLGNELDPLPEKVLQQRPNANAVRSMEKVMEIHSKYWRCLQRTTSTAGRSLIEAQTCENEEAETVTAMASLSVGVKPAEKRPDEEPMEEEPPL
Data set [4] in a line: In vitro intrinsic clearance after incubation with mouse liver microsomes. The following applies: Table 6. Format: in vitro ADME. (In general: Liver microsomes are vesicles of endoplasmic reticulum, rich in cytochrome P450 enzymes.)
In a further data set the target is HDAC10 (Homo sapiens (Human), UniProt Q969S8). Kind of data set: HDAC10 electrophoretic mobility shift assay. The class given is biochemical. The following applies: Table 7, read-out: HDAC IC50, HDAC 10.
HDAC10, sequence (Q969S8 whole entry): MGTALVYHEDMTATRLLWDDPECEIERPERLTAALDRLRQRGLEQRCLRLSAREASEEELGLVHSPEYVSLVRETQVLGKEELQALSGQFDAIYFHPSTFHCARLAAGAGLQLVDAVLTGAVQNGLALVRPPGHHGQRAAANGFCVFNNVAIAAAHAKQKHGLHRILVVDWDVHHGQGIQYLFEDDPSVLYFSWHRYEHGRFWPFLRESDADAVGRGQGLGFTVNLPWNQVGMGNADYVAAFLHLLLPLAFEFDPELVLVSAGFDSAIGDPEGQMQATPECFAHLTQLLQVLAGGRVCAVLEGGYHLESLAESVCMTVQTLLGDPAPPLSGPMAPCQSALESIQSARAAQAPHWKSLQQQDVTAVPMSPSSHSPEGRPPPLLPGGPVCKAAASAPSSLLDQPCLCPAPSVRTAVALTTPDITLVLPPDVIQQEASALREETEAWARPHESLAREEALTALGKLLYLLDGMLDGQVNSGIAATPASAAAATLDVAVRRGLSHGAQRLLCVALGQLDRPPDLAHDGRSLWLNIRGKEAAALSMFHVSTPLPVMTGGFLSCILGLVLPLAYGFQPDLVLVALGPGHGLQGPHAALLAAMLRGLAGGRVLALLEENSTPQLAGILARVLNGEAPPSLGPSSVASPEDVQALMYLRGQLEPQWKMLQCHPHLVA
Another data set addresses HDAC9 (Homo sapiens (Human), UniProt Q9UKV0). Kind of data set: HDAC9 electrophoretic mobility shift assay. The class given is biochemical. The following applies: Table 7, read-out: HDAC IC50, HDAC 9.
The next data set concerns the target HDAC2 (Homo sapiens (Human), UniProt Q92769). Kind of data set: HDAC2 electrophoretic mobility shift assay. Format: biochemical. The note with it: Table 7, read-out: HDAC IC50, HDAC 2.
In the next data set the target is HDAC6 (Homo sapiens (Human), UniProt Q9UBN7). As to the kind of experiment: HDAC6 electrophoretic mobility shift assay. The note with it: mobility shift assay, Table 7; read-out: HDAC IC50, HDAC 6. Format: biochemical.
In a further data set the target is HDAC11 (Homo sapiens (Human), UniProt Q96DB2). Kind of data set: Lipophilic efficiency (pIC50 HDAC11 - clogD7.4). The following applies: pIC50 HDAC11 - clogD7.4, Table 6.
HDAC11, sequence (Q96DB2 whole entry): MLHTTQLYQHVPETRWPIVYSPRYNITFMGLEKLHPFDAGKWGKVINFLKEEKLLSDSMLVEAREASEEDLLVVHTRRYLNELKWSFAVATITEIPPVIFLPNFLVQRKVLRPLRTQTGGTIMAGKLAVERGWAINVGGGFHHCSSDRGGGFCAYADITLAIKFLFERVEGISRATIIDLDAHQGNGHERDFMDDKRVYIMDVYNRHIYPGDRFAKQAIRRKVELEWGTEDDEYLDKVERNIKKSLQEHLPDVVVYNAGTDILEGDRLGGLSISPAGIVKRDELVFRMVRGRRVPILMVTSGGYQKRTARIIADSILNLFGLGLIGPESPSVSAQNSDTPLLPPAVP
In a further data set the target is HDAC1 (Homo sapiens (Human), UniProt Q13547). As to the kind of experiment: HDAC1 electrophoretic mobility shift assay. The class given is biochemical. The note with it: Table 7, read-out: HDAC IC50, HDAC 1.
The target in a further data set is full-length human HDAC11 (Homo sapiens (Human), UniProt Q96DB2). As to the kind of experiment: HDAC11 deacetylase electrophoretic mobility shift assay (Nanosyn). Format: biochemical. The note with it: for IC50: mobility shift assay. Here is the method:
The measurement of HD AC 11 deacetylase activity was performed using an electrophoretic mobility shift assay by Nanosyn (Santa Clara, Calif.). Full length human recombinant HD AC 11 protein was expressed in baculoviral system and purified by affinity chromatography. The enzymatic reactions were assembled in 384 well plates in a total volume of 25 μL in a reaction buffer composing: 100 mM HEPES, pH 7.5, 25 mM KCl, 0.1% bovine serum albumin, 0.01% Triton X-100, 1% DMSO (from compounds), 2 μM of the fluorescently labeled peptide substrate and enzyme. The enzyme was added at a final concentration of 10 nM. The peptide substrate FAM-RHKK(tri-fluor-Ac)—NH2 was used. The compounds were tested at 12 concentrations spaced by 3× dilution intervals. Negative control samples (0%-inhibition in the absence of inhibitor) and positive control samples (100%-inhibition) were assembled in replicates of four in each assay plate. The reactions were incubated at 25° C. and quenched by the addition of 45 μL of termination buffer (100 mM HEPES, pH 7.5, 0.01% Triton X-100, 0.05% SDS).
The terminated assay plates were analyzed on LabChip® 3000 microfluidic electrophoresis instrument (Perkin Elmer/Caliper Life Sciences). The fluorescence intensity of the electrophoretically separated de-acetylated product and substrate peptide was measured. Activity in each sample was determined as the product to sum ratio (PSR): P/(S+P), where P is the peak height of the product peptide and S is the peak height of the substrate peptide. Percent inhibition (Pinh) is determined using the following equation: Pinh=(PSR0%−PSRinh)/(PSR0%−PSR100%)*100, where PSRinh, is the product sum ratio in the presence of inhibitor, PSR0% is the average product sum ration in the absence of inhibitor and PSR100% is the average product sum ratio in 100%-inhibition control samples. The IC50 values of inhibitors were determined by fitting the percent inhibition curves with 4 parameter dose-response model using XLfit 4 software.

In a further data set the target is HDAC3 (Homo sapiens (Human), UniProt O15379). Kind of data set: HDAC3 electrophoretic mobility shift assay. Format: biochemical. The note with it: Table 7, read-out: HDAC IC50, HDAC 3.

full-length human HDAC11, sequence (Q96DB2 whole entry): as above
HDAC9, sequence (Q9UKV0 whole entry): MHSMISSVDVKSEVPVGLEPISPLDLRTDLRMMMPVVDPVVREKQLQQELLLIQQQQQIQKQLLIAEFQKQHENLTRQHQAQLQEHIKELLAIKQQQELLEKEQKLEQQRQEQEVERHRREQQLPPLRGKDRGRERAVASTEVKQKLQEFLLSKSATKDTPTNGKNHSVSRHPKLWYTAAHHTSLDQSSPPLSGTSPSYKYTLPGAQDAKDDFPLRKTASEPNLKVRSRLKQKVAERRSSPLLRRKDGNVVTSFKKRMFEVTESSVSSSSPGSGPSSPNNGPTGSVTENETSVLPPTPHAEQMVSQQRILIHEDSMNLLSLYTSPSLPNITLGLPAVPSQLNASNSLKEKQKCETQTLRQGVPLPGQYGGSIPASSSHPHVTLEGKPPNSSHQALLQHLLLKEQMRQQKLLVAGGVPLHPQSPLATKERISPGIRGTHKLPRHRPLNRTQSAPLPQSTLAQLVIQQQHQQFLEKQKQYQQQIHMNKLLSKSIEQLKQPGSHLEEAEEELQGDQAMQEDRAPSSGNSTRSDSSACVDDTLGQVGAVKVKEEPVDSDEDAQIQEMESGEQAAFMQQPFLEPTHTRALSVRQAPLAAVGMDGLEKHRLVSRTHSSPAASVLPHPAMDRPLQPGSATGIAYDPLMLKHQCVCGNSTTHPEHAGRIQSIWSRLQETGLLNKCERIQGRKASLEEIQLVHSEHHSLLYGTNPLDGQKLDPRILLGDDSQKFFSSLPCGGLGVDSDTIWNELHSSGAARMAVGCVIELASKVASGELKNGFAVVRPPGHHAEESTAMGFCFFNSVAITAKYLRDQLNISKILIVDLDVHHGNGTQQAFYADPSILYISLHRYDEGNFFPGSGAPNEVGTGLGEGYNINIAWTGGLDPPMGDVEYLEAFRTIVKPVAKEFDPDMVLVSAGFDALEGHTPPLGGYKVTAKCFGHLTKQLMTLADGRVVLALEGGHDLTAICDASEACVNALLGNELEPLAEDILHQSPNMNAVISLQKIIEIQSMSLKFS
HDAC7, sequence (Q8WUI4 whole entry): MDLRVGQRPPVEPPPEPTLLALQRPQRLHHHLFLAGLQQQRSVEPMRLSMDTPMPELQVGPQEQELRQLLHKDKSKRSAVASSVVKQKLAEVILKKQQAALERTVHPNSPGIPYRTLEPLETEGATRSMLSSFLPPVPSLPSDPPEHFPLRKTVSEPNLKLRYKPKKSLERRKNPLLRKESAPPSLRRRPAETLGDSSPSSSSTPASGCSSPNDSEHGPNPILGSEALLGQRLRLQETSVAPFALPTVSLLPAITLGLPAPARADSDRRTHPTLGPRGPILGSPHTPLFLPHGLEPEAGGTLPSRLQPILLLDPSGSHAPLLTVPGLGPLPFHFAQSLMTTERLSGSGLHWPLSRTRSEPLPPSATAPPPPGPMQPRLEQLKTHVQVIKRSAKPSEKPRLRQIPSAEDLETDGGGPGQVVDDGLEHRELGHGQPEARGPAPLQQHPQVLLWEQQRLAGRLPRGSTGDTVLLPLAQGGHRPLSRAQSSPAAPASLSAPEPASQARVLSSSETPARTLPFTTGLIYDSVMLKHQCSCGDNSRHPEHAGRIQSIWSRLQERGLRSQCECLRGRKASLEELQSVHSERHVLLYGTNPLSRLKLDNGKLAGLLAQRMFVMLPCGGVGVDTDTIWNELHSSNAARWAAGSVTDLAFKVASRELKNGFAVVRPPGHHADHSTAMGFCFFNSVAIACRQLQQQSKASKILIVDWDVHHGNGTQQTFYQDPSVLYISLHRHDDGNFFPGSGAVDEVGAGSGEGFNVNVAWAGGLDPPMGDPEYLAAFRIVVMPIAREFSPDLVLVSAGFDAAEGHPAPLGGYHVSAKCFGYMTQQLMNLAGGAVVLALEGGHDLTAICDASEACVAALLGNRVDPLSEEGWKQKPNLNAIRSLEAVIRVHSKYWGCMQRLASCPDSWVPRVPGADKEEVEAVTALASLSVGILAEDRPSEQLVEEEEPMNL
HDAC11 fused to Nanoluc luciferase, sequence (Q96DB2 whole entry, the tested form may be a part): as the sequence (Q96DB2 whole entry) above
HDAC8, sequence (Q9BY41 whole entry, species assumed): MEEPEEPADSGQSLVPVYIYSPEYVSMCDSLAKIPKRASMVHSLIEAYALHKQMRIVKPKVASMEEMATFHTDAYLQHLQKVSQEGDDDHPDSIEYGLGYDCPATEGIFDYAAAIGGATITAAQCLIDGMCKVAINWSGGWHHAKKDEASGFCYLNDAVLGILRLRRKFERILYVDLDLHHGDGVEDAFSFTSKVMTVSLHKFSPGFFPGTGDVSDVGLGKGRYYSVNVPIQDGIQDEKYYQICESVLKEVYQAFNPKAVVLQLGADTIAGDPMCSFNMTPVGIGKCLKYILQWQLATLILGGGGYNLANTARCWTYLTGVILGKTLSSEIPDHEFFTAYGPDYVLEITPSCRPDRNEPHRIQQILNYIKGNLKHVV
HDAC2, sequence (Q92769 whole entry): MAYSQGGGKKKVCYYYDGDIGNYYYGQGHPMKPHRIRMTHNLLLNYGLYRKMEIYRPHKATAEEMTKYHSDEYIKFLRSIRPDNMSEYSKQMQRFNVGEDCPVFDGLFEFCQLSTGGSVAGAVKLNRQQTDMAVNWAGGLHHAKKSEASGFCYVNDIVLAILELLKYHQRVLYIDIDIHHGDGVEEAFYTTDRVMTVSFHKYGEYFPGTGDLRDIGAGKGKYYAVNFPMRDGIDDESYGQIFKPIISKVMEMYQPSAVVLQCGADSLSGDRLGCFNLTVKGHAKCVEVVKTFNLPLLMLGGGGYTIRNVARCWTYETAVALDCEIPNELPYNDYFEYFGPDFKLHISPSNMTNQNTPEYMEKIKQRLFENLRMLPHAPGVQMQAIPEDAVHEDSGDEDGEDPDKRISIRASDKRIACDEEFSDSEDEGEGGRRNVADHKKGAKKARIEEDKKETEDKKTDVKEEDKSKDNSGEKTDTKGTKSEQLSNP

In the case of `CC1(C)c2cccc(C(N)=O)c2CN1c1cnc(C(F)(F)F)cn1` [Compound 50-1, 1,1-Dimethyl-2-(5-(trifluoromethyl)pyrazin-2-yl)isoindoline-4-carboxamide], the 50% inhibitory concentration (IC50) (on HDAC8; at HDAC5; in data set [2]; on HDAC7; on HDAC4; on HDAC10) was more than 1000 nM each time. In addition, the IC50 (usually the point on the concentration scale where inhibition reaches its midpoint) on HDAC9 was more than 1000 nM; on HDAC2 it was more than 1000 nM; at HDAC6 it was more than 1000 nM; on HDAC1, more than 1000 nM; at full-length human HDAC11 (Table 6, read-out: HDAC11 IC50), more than 1000 nM; on full-length human HDAC11 (Table 7, read-out: HDAC IC50, HDAC 11), more than 1000 nM. Moreover, on HDAC3, the half-inhibitory concentration (IC50) is more than 1000 nM. The “activity against all HDACs, in words” value in data set [1] was “inactive against all HDACs”. Moreover, the solubility (usually the concentration that dissolves in the medium under given conditions) in [3] was not above 30 µM. Also, in [4], the intrinsic metabolic clearance (microsomal CLint) (in general, a measure of how fast metabolising enzymes remove a compound, apart from limits set by blood flow) is less than 50 µL/min/mg. In addition, at HDAC11, the LipE entry is reported as “+ (indicates LipE≤5.5)”. Moreover, the “HDAC11 potency, in words” value at full-length human HDAC11 (comparison with parent or lead compound) is given as “loss of all HDAC11 activity”.
